5 compounds from patent US7105551B2, “Thiazole derivatives for treating PPAR related disorders” (SmithKline Beecham Corporation, priority 2000, dated 2006) can be followed below.

Usually EC50 stands for the concentration that produces a half-maximal response. Lower therefore signals an effect from little substance. One may read the melting point as the temperature of the solid-liquid transition.

One series addresses T1, hPPAR δ (Homo sapiens, UniProt Q03181).
T1 construct: expressed in transfected cells; host or cells: CV-1 cells
T1 sequence (Q03181 211-439 limits assumed): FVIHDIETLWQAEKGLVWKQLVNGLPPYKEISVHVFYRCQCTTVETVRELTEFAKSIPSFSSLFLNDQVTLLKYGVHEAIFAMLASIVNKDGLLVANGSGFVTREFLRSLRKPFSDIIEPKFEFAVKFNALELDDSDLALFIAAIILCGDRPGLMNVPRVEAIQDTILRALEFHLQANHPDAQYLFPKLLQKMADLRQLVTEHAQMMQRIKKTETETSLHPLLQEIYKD
Briefly: Transient transfection (transactivation) assay in CV-1 cells, hPPAR delta. The class given is cell-based. The following applies: GAL4 chimeric receptor, SPAP reporter. The source says:
(§1) Compounds were screened for functional potency in transient transfection assays in CV-1 cells for their ability to activate the PPAR subtypes (transactivation assay). A previously established chimeric receptor system was utilized to allow comparison of the relative transcriptional activity of the receptor subtypes on the same target gene and to prevent endogenous receptor activation from complicating the interpretation of results. […] The ligand binding domains for murine and human PPAR alpha, PPAR gamma, and PPAR delta were each fused to the yeast transcription factor GAL4 DNA binding domain. CV-1 cells were transiently transfected with expression vectors for the respective PPAR chimera along with a reporter construct containing five copies of the GAL4 DNA binding site driving expression of secreted placental alkalin phosphatase (SPAP) and beta-galactosidase. After 16 h, the medium was exchanged to DME medium supplemented with 10% delipidated fetal calf serum and th test compound at the appropriate concentration. After an additional 24 h, cell extracts were prepared and assayed for alkaline phosphatase and β-galactosidase activity. […] The positive control in the hPPAR alpha assays was 2-methyl-2-[4-{[(4-methyl-2-[4-trifluoromethylphenyl]-thiazol-5-yl-carbonyl)amino]methyl}-phenoxy]propionic acid. The positive control for PPAR delta assays was 2-{2-methyl-4-[({4-methyl-2-{trifluoromethyl)phenyl]-1,3-thiazol-5-yl}methyl)sulfanyl]phenoxy}acetic acid.

In the next series the target is T2, hPPAR α (Homo sapiens, UniProt Q07869).
T2 construct: expressed in transfected cells; host or cells: CV-1 cells
T2 sequence (Q07869 239-466 limits assumed): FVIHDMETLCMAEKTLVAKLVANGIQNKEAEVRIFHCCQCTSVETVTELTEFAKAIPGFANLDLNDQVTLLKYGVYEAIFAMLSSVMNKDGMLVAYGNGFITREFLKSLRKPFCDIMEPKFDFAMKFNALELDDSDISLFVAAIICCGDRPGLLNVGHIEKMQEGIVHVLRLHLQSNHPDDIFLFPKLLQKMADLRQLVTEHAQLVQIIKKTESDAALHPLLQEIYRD
Briefly: Transient transfection (transactivation) assay in CV-1 cells, hPPAR alpha. The class given is cell-based. The following applies: GAL4 chimeric receptor, SPAP reporter.
Source text: as §1

For a further series, the target named is T3, hPPAR γ (Homo sapiens, UniProt P37231).
T3 construct: expressed in transfected cells; host or cells: CV-1 cells
T3 sequence (P37231 238-503 limits assumed): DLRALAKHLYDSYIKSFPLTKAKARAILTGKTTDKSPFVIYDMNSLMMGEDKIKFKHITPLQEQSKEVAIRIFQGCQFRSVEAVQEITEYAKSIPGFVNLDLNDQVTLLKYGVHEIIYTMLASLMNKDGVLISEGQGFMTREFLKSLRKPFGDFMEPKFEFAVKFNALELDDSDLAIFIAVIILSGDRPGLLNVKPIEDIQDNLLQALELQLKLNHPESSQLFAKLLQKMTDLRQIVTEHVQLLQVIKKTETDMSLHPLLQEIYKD
Briefly: Transient transfection (transactivation) assay in CV-1 cells, hPPAR gamma. It is filed as cell-based. The following applies: GAL4 chimeric receptor, SPAP reporter.
Source text: as §1

With `Cc1cc(O[C@@H](C)c2sc(-c3ccc(C(F)(F)F)cc3)nc2C)ccc1OC(C)(C)C(=O)O` [Example 9, (S)-2-methyl-2-(2-methyl-4-{1-[4-methyl-2-(4-trifluoromethylphenyl)-thiazol-5-yl]ethoxy}-phenoxy)-propionic acid], the EC50 stood at 3 nM at hPPAR δ, 16 nM at hPPAR α and 7000 nM at hPPAR γ.

`Cc1cc(O[C@H](C)c2sc(-c3ccc(C(F)(F)F)cc3)nc2C)ccc1OC(C)(C)C(=O)O` [Example 11, (R)-2-methyl-2-(2-methyl-4-{1-[4-methyl-2-(4-trifluoromethylphenyl)-thiazol-5-yl]ethoxy}-phenoxy)-propionic acid]: the EC50 is 0.7 nM at hPPAR δ, 10 nM on hPPAR α and 300 nM on hPPAR γ.

Compound `Cc1cc(OC(C)c2sc(-c3ccc(C(F)(F)F)cc3F)nc2C)ccc1OC(C)(C)C(=O)O` (stereo not shown) [Example 19, 2-(4-{1-[2-(2-fluoro-4-trifluoromethyl-phenyl)-4-methyl-thiazol-5-yl]-ethoxy}-2-methyl-phenoxy)-2-methyl-propionic acid] yielded a melting point of 133 °C.

`CC[C@@H](Oc1ccc(OC(C)(C)C(=O)O)c(C)c1)c1sc(-c2ccc(C(F)(F)F)cc2)nc1C` [Example 29, (R)-2-methyl-2-(2-methyl-4-{1-[4-methyl-2-(4-trifluoromethyl-phenyl)thiazol-5-yl]propoxy}-phenoxy)-propionic acid]: the concentration for a half-maximal effect (EC50) on hPPAR δ came out at 1.5 nM; on hPPAR α, 9 nM; on hPPAR γ, 240 nM.

For the compound `CC[C@H](Oc1ccc(OC(C)(C)C(=O)O)c(C)c1)c1sc(-c2ccc(C(F)(F)F)cc2)nc1C` [Example 31, (S)-2-methyl-2-(2-methyl-4-{1-[4-methyl-2-(4-trifluoromethyl-phenyl)-thiazol-5-yl]propoxy}-phenoxy)-propionic acid], the half-maximal effective concentration (EC50) worked out at 1.7 nM at hPPAR δ, 5 nM at hPPAR α and 660 nM at hPPAR γ.
